Laboratory results taken from PMC11836371, “Virtual fragment screening for DNA repair inhibitors in vast chemical space” (Nature Communications, 2025).

Biological target: human OGG1 enzyme (Homo sapiens, UniProt O15527)
Test: Differential scanning fluorimetry (DSF) thermal shift assay
Assay type: binding
Method: The temperature was increased from 20 °C to 85 °C with 10 readings/degree. Tm values were calculated using an excel template and fitting to the Boltzmann equation in Prism v.6.07 (GraphPad Software).

human OGG1 enzyme, sequence (O15527 whole entry): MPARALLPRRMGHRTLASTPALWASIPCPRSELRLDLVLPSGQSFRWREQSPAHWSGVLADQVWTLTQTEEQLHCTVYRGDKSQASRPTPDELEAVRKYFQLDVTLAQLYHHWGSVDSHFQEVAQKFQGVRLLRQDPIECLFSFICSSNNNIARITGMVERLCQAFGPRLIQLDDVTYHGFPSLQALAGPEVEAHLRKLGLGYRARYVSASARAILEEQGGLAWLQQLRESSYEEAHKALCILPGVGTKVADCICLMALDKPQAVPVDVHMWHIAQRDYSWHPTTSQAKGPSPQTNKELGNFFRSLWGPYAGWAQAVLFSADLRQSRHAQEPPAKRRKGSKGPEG

Row | Structure (SMILES) | ∆Tm (K) (99 μM) | ∆Tm (K) (495 µM)
1 | O=C(NCC1(O)CN(C(=O)c2cccnn2)C1)c1ccc(Cl)cc1 [ZINC000584413720] | 0.65 K | –
2 | C[C]C(=O)Nc1nnc2ccccn12 [ZINC000613462643] | 0.05 K | –
3 | O=C(NCc1ccn(-c2ccccc2)n1)c1cc(-c2ccccc2)no1 [ZINC000617287579] | -0.19 K | –
4 | COCC(C)(O)C(=O)Nc1cnc2ccccn12 (centres unmarked) [ZINC000618358369] | – | 0.11 K
5 | Cc1cc(NC(=O)c2coc(C3CC3)n2)cs1 [ZINC000634423932] | – | -0.08 K
6 | Cc1n[nH]cc1CNC(=O)NC1(C)CC1(C)C (centres unmarked) [ZINC000663691150] | – | 0.01 K
7 | O=C(NCC1([C](O)c2ccccc2)CC1)c1ccc(Cl)cc1 [ZINC000700852234] | -0.27 K | –
8 | Cc1conc1NC(=O)c1csc2cncn12 [ZINC000772563154] | – | 0.52 K
9 | Cc1ccccc1CNC(=O)Nc1cnnn1C [ZINC000787791820] | – | -0.02 K
10 | O=C(NCC1(O)CCC1)c1nc(Cl)cs1 [ZINC000789956517] | – | 0.07 K
11 | Cc1conc1NC(=O)c1nc(Cl)cs1 [ZINC000789997344] | – | -0.03 K

Now from value to compound:

Row | ∆Tm (K) (99 μM) | ∆Tm (K) (495 µM) | Structure (SMILES)
12 | – | 0.03 K | Cc1cc(=O)c(C(=O)NC2(C)CC2(C)C)c[nH]1 (centres unmarked) [ZINC000620078540]
13 | 0.48 K | – | Cc1ccc(NC(=O)N2CC(O)(c3ccc(Cl)cc3)C2)s1 [ZINC000633809751]
14 | -0.08 K | – | Cc1cccc2nc(C(=O)NCc3ccc(Br)o3)cn12 [ZINC000677630607]
15 | – | 0.01 K | Cc1cc(CNC(=O)c2c(O)cccc2F)[nH]n1 [ZINC000681276767]
16 | -0.42 K | – | Cc1ccc(NC(=O)N2CC(O)(c3ccc(Cl)cc3)C2)s1 [ZINC000776423770]
17 | – | -0.05 K | Cn1ccnc1NC(=O)c1nc(Cl)cs1 [ZINC000851710058]
